In general, Ki refers to the equilibrium dissociation constant of an inhibitor or competing ligand from its target.

The results in this text go back to patent publication US8188135B2, “Compounds as cannabinoid receptor ligands” (priority 2008, dated 2012).

Where two headings read alike, the source gives them in different places.

One assay addresses T1, rat CB2 (Rattus norvegicus, UniProt Q9QZN9).
T1 sequence (Q9QZN9 1-360): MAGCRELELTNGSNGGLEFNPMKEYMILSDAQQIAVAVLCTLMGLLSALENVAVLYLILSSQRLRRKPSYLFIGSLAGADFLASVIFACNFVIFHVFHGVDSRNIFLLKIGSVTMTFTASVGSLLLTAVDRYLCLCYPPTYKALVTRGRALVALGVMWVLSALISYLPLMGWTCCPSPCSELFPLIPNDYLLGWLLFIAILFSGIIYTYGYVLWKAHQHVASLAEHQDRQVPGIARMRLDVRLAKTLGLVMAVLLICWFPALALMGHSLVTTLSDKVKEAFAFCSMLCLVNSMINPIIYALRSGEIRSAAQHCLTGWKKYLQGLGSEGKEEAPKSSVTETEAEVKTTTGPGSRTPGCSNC
Briefly: rat CB2 radioligand binding assay ([3H]CP 55,940 competition). More on the design: expressed in transfected cells; host or cells: HEK293. Conditions: HEK293 membranes, 0.5 nM [3H]CP 55,940. The protocol:
(§1) The CB1 and CB2 radioligand binding assays described herein are utilized to ascertain the affinity of compounds of the present application for binding to CB2 relative to CB1 receptors.
HEK293 cells stably expressing rat CB2 receptors were grown until a confluent monolayer was formed. Briefly, the cells were harvested and homogenized in TE buffer (50 mM Tris-HCl, 1 mM MgCl2, and 1 mM EDTA) using a polytron for 2×10 second bursts in the presence of protease inhibitors, followed by centrifugation at 45,000×g for 20 minutes. The final membrane pellet was re-homogenized in storage buffer (50 mM Tris-HCl, 1 mM MgCl2, and 1 mM EDTA and 10% sucrose) and frozen at −78° C. until used. Saturation binding reactions were initiated by the addition of membrane preparation (protein concentration of 20 μg/well for rat CB2) into wells of a deep well plate containing [^3H]CP 55,940 (120 Ci/mmol, a nonselective CB agonist commercially available from Tocris) in assay buffer (50 mM Tris, 2.5 mM EDTA, 5 mM MgCl2, and 0.5 mg/mL fatty acid free BSA, pH 7.4). After 45 min incubation at 30° C., binding reaction was terminated by the addition of […] of cold assay buffer followed by rapid vacuum filtration through a UniFilter-96 GF/C filter plates (pre-soaked in 1 mg/mL BSA for 2 hours). The bound activity was counted in a TopCount using Microscint-20. Saturation experiments were conducted with twelve concentrations of [^3H]CP 55,940 ranging from 0.01 to 8 nM. Competition experiments were conducted with 0.5 nM [^3H]CP 55,940 and five concentrations of displacing ligands selected from the range of 0.01 nM to 10 μM. The addition of 10 μM unlabeled CP 55,940 (Tocris, Ellisville, Mo.) was used to assess nonspecific binding.

The next assay has as its target T2, human CB2 receptors (Homo sapiens, UniProt P34972).
T2 construct: expressed in transfected cells; host or cells: HEK293
In words: human CB2 radioligand binding assay ([3H]CP 55,940 competition). Conditions: HEK293 membranes, 0.5 nM [3H]CP 55,940. How it is done:
as §1
HEK293 cells stably expressing human CB2 receptors were grown until a confluent monolayer was formed. Briefly, the cells were harvested and homogenized in TE buffer (50 mM Tris-HCl, 1 mM MgCl2, and 1 mM EDTA) using a polytron for 2×10 second bursts in the presence of protease inhibitors, followed by centrifugation at 45,000×g for 20 minutes. The final membrane pellet was re-homogenized in storage buffer (50 mM Tris-HCl, 1 mM MgCl2, and 1 mM EDTA and 10% sucrose) and frozen at −78° C. until used. Saturation binding reactions were initiated by the addition of membrane preparation (protein concentration of 5 μg/well for human CB2) into wells of a deep well plate containing [^3H]CP 55,940 (120 Ci/mmol, a nonselective CB agonist commercially available from Tocris) in assay buffer (50 mM Tris, 2.5 mM EDTA, 5 mM MgCl2, and 0.5 mg/mL fatty acid free BSA, pH 7.4). After 90 min incubation at 30° C., binding reaction was terminated by the addition of 300 μL/well of cold assay buffer followed by rapid vacuum filtration through a UniFilter-96 GF/C filter plates (pre-soaked in 1 mg/mL BSA for 2 hours). The bound activity was counted in a TopCount using Microscint-20. Saturation experiments were conducted with twelve concentrations of [^3H]CP 55,940 ranging from 0.01 to 8 nM. Competition experiments were conducted with 0.5 nM [^3H]CP 55,940 and five concentrations (0.01 nM to 10 μM) of displacing ligands. The addition of 10 μM unlabeled CP 55,940 (Tocris, Ellisville, Mo.) was used to assess nonspecific binding.

T2 sequence (P34972 whole entry): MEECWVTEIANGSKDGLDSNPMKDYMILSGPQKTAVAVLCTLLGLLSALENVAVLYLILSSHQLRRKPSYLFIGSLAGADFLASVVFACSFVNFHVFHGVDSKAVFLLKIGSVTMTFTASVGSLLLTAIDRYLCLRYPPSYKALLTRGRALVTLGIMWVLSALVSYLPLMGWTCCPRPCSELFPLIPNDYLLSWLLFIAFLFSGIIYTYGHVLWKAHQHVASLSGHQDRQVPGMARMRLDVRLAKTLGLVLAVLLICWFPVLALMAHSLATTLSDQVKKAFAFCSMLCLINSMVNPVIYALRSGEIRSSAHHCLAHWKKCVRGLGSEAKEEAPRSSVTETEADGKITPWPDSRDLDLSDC

Consider `Cn1c(C(C)(C)C)c/c(=N\C(=O)c2cc(C(F)(F)F)ccc2OCCCS(C)(=O)=O)n1CC1CCC1` [Example 134, N-[(3E)-5-tert-butyl-2-(cyclobutylmethyl)-1-methyl-1,2-dihydro-3H-pyrazol-3-ylidene]-2-[3-(methylsulfonyl)propoxy]-5-(trifluoromethyl)benzamide], for which the Ki on rat CB2 (rat CB2 (Ki, nM)) came out at 40 nM; at human CB2 receptors (human CB2 (Ki, nM)), 22 nM.
For `Cn1c(C(C)(C)C)c/c(=N\C(=O)c2cc(C(F)(F)F)ccc2OCC(C)(C)O)n1CC1CCCC1` [Example 106, N-[(3E)-5-tert-butyl-2-(cyclopentylmethyl)-1-methyl-1,2-dihydro-3H-pyrazol-3-ylidene]-2-(2-hydroxy-2-methylpropoxy)-5-(trifluoromethyl)benzamide], in that order: 8.7 nM and 6.6 nM.
On the same counts, the results for `CCCCn1/c(=N/C(=O)c2cc(C(F)(F)F)ccc2SCC(N)=O)cc(C(C)(C)C)n1C` [Example 140, 2-[(2-amino-2-oxoethyl)thio]-N-[(3E)-2-butyl-5-tert-butyl-1-methyl-1,2-dihydro-3H-pyrazol-3-ylidene]-5-(trifluoromethyl)benzamide] are 11 nM and 136 nM.
Consider `CC1=NOC(Cn2/c(=N/C(=O)c3cc(C(F)(F)F)ccc3OC[C@@H]3CCCO3)cc(C(C)(C)C)n2C)C1` (stereo partly drawn) [Example 31, N-{(3E)-5-tert-butyl-1-methyl-2-[(3-methyl-4,5-dihydroisoxazol-5-yl)methyl]-1,2-dihydro-3H-pyrazol-3-ylidene}-2-[(2S)-tetrahydrofuran-2-ylmethoxy]-5-(trifluoromethyl)benzamide], for which the Ki is 63 nM on rat CB2 (rat CB2 (Ki, nM)) and 239 nM at human CB2 receptors (human CB2 (Ki, nM)).
Consider `CSCCCCOc1ccc(C(F)(F)F)cc1C(=O)/N=c1\cc(C(C)(C)C)n(C)n1C[C@H]1CCCO1` [Example 82, N-{(3E)-5-tert-butyl-1-methyl-2-[(2R)-tetrahydrofuran-2-ylmethyl]-1,2-dihydro-3 H-pyrazol-3-ylidene}-2-[4-(methylthio)butoxy]-5-(trifluoromethyl)benzamide], for which the inhibition constant (Ki) on rat CB2 (rat CB2 (Ki, nM)) was found to be 2.6 nM; on human CB2 receptors (human CB2 (Ki, nM)), 5.4 nM.
For `CSCCCOc1ccc(C(F)(F)F)cc1C(=O)/N=c1\cc(C(C)(C)C)n(C)n1CC1CCC1` [Example 133, N-[(3E)-5-tert-butyl-2-(cyclobutylmethyl)-1-methyl-1,2-dihydro-3H-pyrazol-3-ylidene]-2-[3-(methylthio)propoxy]-5-(trifluoromethyl)benzamide], in that order: 15 nM and 13 nM.
On the same counts, the results for `Cn1c(C(C)(C)C)c/c(=N\C(=O)c2cc(C(F)(F)F)ccc2OCC2(C)COC2)n1C[C@H]1CCCO1` [Example 19, N-{(3E)-5-tert-butyl-1-methyl-2-[(2R)-tetrahydrofuran-2-ylmethyl]-1,2-dihydro-3H-pyrazol-3-ylidene}-2-[3-methyloxetan-3-methoxyl]-5-(trifluoromethyl)benzamide] are 323 nM and above 1000 nM.
Take `CCCCn1cc(C(C)(C)C)o/c1=N\C(=O)c1cc(C(F)(F)F)ccc1OCC(C)(C)O` [Example 93, N-[(2Z)-3-butyl-5-tert-butyl-1,3-oxazol-2(3H)-ylidene]-2-(2-hydroxy-2-methylpropoxy)-5-(trifluoromethyl)benzamide]: the Ki came out at 3.9 nM on rat CB2 (rat CB2 (Ki, nM)) and 3.6 nM at human CB2 receptors (human CB2 (Ki, nM)).
Take `C=CC(O)COc1ccc(C(F)(F)F)cc1C(=O)/N=c1\cc(C(C)(C)C)n(C)n1C[C@H]1CCCO1` (stereo partly drawn) [Example 101, N-{(3E)-5-tert-butyl-1-methyl-2-[(2R)-tetrahydrofuran-2-ylmethyl]-1,2-dihydro-3 H-pyrazol-3-ylidene}-2-[(2-hydroxybut-3-enyl)oxy]-5-(trifluoromethyl)benzamide]: the inhibition constant (Ki) at rat CB2 (rat CB2 (Ki, nM)) was 2.8 nM; on human CB2 receptors (human CB2 (Ki, nM)) it was 1 nM.
For `CCCCn1/c(=N/C(=O)c2cc(C(F)(F)F)ccc2SCC(C)(C)O)cc(C(C)(C)C)n1C` [Example 137], in that order: 26 nM and 55 nM.
For `CO[C@H]1CCO[C@@H]1COc1ccc(C(F)(F)F)cc1C(=O)/N=c1\cc(C(C)(C)C)n(C)n1C[C@H]1CCCO1` [Example 22], the Ki on rat CB2 (read-out: rat CB2 (Ki)) is 424 nM; on human CB2 receptors (read-out: human CB2 (Ki)), above 1000 nM.
Regarding `CCC(O)(CC)COc1ccc(C(F)(F)F)cc1C(=O)/N=c1\cc(C(C)(C)C)n(C)n1C[C@H]1CCCO1` [Example 117, N-{(3E)-5-tert-butyl-1-methyl-2-[(2R)-tetrahydrofuran-2-ylmethyl]-1,2-dihydro-3H-pyrazol-3-ylidene}-2-(2-ethyl-2-hydroxybutoxy)-5-(trifluoromethyl)benzamide], the Ki at rat CB2 (rat CB2 (Ki, nM)) was determined as 69 nM; at human CB2 receptors (human CB2 (Ki, nM)), 83 nM.
On the same counts, the results for `CCC(C)(O)COc1ccc(C(F)(F)F)cc1C(=O)/N=c1\cc(C(C)(C)C)n(C)n1C[C@H]1CCCO1` (stereo partly drawn) [Example 110, N-{(3E)-5-tert-butyl-1-methyl-2-[(2R)-tetrahydrofuran-2-ylmethyl]-1,2-dihydro-3H-pyrazol-3-ylidene}-2-(2-hydroxy-2-methylbutoxy)-5-(trifluoromethyl)benzamide] are 1.6 nM and 3.5 nM.
Turning to `Cn1c(C(C)(C)C)c/c(=N\C(=O)c2cc(C(F)(F)F)ccc2OCC(C)(C)CO)n1C[C@H]1CCCO1` [Example 116, N-{(3E)-5-tert-butyl-1-methyl-2-[(2R)-tetrahydrofuran-2-ylmethyl]-1,2-dihydro-3H-pyrazol-3-ylidene}-2-(3-hydroxy-2,2-dimethylpropoxy)-5-(trifluoromethyl)benzamide], the figures for the Ki at rat CB2 (read-out: rat CB2 (Ki)) and on human CB2 receptors (read-out: human CB2 (Ki)) were 199 nM and above 1000 nM, respectively.
For `Cn1c(C(C)(C)C)c/c(=N\C(=O)c2cc(C(F)(F)F)ccc2OC[C@@H]2CCN2S(C)(=O)=O)n1C[C@H]1CCCO1` [Example 67, N-{(3E)-5-tert-butyl-1-methyl-2-[(2R)-tetrahydrofuran-2-ylmethyl]-1,2-dihydro-3H-pyrazol-3-ylidene}-2-{[(2S)-1-(methylsulfonyl)azetidin-2-yl]methoxy}-5-(trifluoromethyl)benzamide], the Ki was 70 nM at rat CB2 (rat CB2 (Ki, nM)) and above 1000 nM on human CB2 receptors (human CB2 (Ki, nM)).
On the same counts, the results for `Cn1c(C(C)(C)C)c/c(=N\C(=O)c2cc(C(F)(F)F)ccc2OCC(C)(C)OCc2ccccc2)n1C[C@H]1CCCO1` [Example 55, 2-[2-(benzyloxy)-2-methylpropoxy]-N-{(3E)-5-tert-butyl-1-methyl-2-[(2R)-tetrahydrofuran-2-ylmethyl]-1,2-dihydro-3H-pyrazol-3-ylidene}-5-(trifluoromethyl)benzamide] are 458 nM and above 1000 nM.
On the same counts, the results for `CC(C)(O)COc1ccc(C(F)(F)F)cc1C(=O)/N=c1\sc(C(C)(C)C)nn1CC1(C)COC1` [Example 97, N-[(2Z)-5-tert-butyl-3-[(3-methyloxetan-3-yl)methyl]-1,3,4-thiadiazol-2(3 H)-ylidene]-2-(2-hydroxy-2-methylpropoxy)-5-(trifluoromethyl)benzamide] are 13 nM and 31.6 nM.
